Here are results for 4 compounds from US12692254B2, “Benzimidazole inhibitors of PAD enzymes” (BRISTOL-MYERS SQUIBB COMPANY, priority 2018, dated 2026).

Structures are written as SMILES. pIC50: −log10 of the molar value.

The target in this assay is human PAD4 (hPAD4) (Homo sapiens, UniProt Q9UM07). The experiment in a line: RFMS human PAD4 functional assay (rapid-fire mass spectrum). As to conditions: 5 nM hPAD4 enzyme, 250 μM BAEE, 50 μM Calcium; 30 min preincubation, 90 min reaction at 37° C. It counts as biochemical. Summed up:
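PAD4 (10 nM) preincubated 30 min with compound (top final 50 μM), then BAEE substrate added in pH 7.5 HEPES buffer with DTT, 50 μM calcium, TPEN; 90 min at 37° C. After TCA quench, citrulline derivatized with phenyl glyoxal (4 mM final, 30 min, 37° C) and quantified by RapidFire MS against internal standard.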

What is called pIC50 is the negative decadic logarithm of the IC50, by convention in mol/L.

Sequence of human PAD4 (hPAD4) (Q9UM07 whole entry): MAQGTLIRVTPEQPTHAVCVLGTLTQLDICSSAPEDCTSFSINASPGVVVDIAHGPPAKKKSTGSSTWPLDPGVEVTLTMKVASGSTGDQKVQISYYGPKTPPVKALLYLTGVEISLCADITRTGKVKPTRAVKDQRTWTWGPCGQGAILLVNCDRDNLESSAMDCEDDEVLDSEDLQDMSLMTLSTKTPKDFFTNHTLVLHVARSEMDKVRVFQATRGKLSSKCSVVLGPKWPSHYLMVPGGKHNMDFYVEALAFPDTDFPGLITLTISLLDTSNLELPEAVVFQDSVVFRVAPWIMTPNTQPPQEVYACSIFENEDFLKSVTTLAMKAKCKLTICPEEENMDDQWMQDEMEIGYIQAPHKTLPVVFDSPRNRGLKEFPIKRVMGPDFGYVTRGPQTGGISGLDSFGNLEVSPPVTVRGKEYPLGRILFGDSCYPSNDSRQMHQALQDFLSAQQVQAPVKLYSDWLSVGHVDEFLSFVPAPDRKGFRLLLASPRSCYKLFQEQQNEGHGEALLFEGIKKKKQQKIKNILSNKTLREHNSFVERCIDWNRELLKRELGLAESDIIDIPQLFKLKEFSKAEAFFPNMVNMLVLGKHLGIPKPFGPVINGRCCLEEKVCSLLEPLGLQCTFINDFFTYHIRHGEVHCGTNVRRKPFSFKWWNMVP

Consider `COc1cc(C(=O)N2CC3CCC2[C@@H]3N)cc2nc(-c3cc4ccccc4n3CC3CC3)n(CC3CCS(=O)(=O)C3)c12` (stereo partly drawn) [Example 264, ((7R)-7-amino-2-azabicyclo[2.2.1]heptan-2-yl)(2-(1-(cyclopropylmethyl)-1H-indol-2-yl)-1-((1,1-dioxidotetrahydrothiophen-3-yl)methyl)-7-methoxy-1H-benzo[d]imidazol-5-yl)methanone], for which the pIC50 is 7.24.

As for `COc1cc(C(=O)N2CC3CCC2[C@@H]3N)cc2nc(-c3cc4cccnc4n3CC3CC3)n(Cc3cnn(-c4ccncc4)c3)c12` (stereo partly drawn) [Example 409, (7R)-2-{2-[1-(cyclopropylmethyl)-1H-pyrrolo[2,3-b]pyridin-2-yl]-7-methoxy-1-{[1-(pyridin-4-yl)-1H-pyrazol-4-yl]methyl}-1H-1,3-benzodiazole-5-carbonyl)-2-azabicyclo[2.2.1]heptan-7-amine], the pIC50 is 7.09.

On to `COc1cc(C(=O)N2C[C@H]3CC[C@@H]2[C@@H]3N)cc2nc(-c3cc4ccccc4n3CC3CC3)n(Cc3cnn(-c4ccccc4)c3)c12` [Example 253, (1R,4R,7R)-2-{2-[1-(cyclopropylmethyl)-1H-indol-2-yl]-7-methoxy-1-[(1-phenyl-1H-pyrazol-4-yl)methyl]-1H-1,3-benzodiazole-5-carbonyl}-2-azabicyclo[2.2.1]heptan-7-amine], for which the pIC50 is 7.57.

For the compound `COc1cc(C(=O)N2C[C@H](N)C[C@@H](F)C2)cc2nc(-c3cc4ccccc4n3CC3CC3)n(Cc3ccon3)c12` [Example 278, (3R,5R)-1-{2-[1-(cyclopropylmethyl)-1H-indol-2-yl]-7-methoxy-1-[(1,2-oxazol-3-yl)methyl]-1H-1,3-benzodiazole-5-carbonyl)-5-fluoropiperidin-3-amine], the pIC50 is 6.34.
